Reference: patent publication US20230286995A1, “METABOLICALLY STABLE PYRIMIDINYL DIHYDROQUINOXALINONES AS TUBULIN POLYMERIZATION INHIBITORS” (UNIVERSITY OF TENNESSEE RESEARCH FOUNDATION, priority 2022, published 2023)
Entries after “also recorded” stand apart in the source; their conditions may differ.

Tests used:
PC3 = experiment: Cytotoxicity assay (MTS, 72 h); assay type: cell-based; settings: Homo sapiens, PC-3; Table 6; read-out: IC50 (nM) Prostate cancer PC3
From the text: Cytotoxicity Assay. […] Each experiment consisted of four replicates.

porcine brain tubulin = target: T1, porcine brain tubulin (Sus scrofa, UniProt P02550+P02554); experiment: Tubulin polymerization inhibitory assay (FIG. 29A); assay type: biochemical; settings: 10 μM, 37° C.; DMSO control 0.3
T1 construct: tubulin mixture containing porcine brain tubulin (3 mg/mL); purchased Cytoskeleton, Inc. T-238P; host or cells: porcine brain
Description: Tubulin polymerization inhibitory assay: In vitro tubulin polymerization assay was carried out according to the manufacturers' instructions (Cytoskeleton). Briefly, 10 μM of 5v was added into tubulin protein (3 mg/mL, purity>99%), and the mixture was transferred into a microplate reader and incubated at 37° C. […] Colchicine and paclitaxel were used as positive controls. […] The assay was carried out in duplicate.

Mia PaCa-2 [1] = experiment: Cytotoxicity assay (MTS, 72 h); assay type: cell-based; settings: Homo sapiens, Table 6, read-out: IC50 (nM) Pancreatic cancer Mia PaCa-2
[2] = system: A375/TxR, M14/LCC6MDR1, MDA-MB-231/TxR, PC3/TxR, and DU145/TxR; experiment: Cell proliferation inhibition assay (MTS), paclitaxel-resistant panel; assay type: cell-based, human
Description: Cell proliferation inhibition assay: The cell proliferation inhibitory effects of tested compounds were first determined through MTS assay as previously described. In short, 3000 to 7500 cells were added to a 96-well cell culture plate followed by the treatment of the test compounds (0.1 nM to 3 μM) in quadruplicate after seeding and overnight incubation. After 72 hours of treatment, MTS (Promega) was added to the wells and the absorbance was measured at […] after incubating for 1.5 to 2 h. […] Briefly, A375/TxR cells (1000 cells/well) were treated with growth medium containing 0.5 nM, 1 nM, or 2 nM of 5v and incubated for over 7 days (the incubation medium was changed every 3 days). After fixing and staining with 0.5% crystal violet, the cell colonies were quantified by the Hybrid Counting module of the Keyence BZ-X700 microscope. The assay was performed in triplicate.

A375/TxR cells = experiment: Cell cycle analysis (PI, flow cytometry); assay type: cell-based, human; settings: 5v 1, 2, 5 nM, 24 h
[3] = Tolerability assessment of 5v in healthy mice; assay type: in vivo
PANC-1-Luc xenografts = experiment: PANC-1-Luc subcutaneous xenograft model; assay type: in vivo, NSG mice
Description: (§1) All animal procedures were performed in accordance with the protocols approved by the Institutional Animal Care and Use Committee (IACUC) at UTHSC. Two pancreatic cancer cell lines, Mia PaCa-2-Luc and PANC-1-Luc, were used in this study. 50 μL of Mia PaCa-2-Luc (5×10^6 cells in HBSS) or PANC-1-Luc (3×10^6 cells in HBSS) cell suspension was mixed with same volume of Matrigel (1:1 mixture) right before use. Cell mixture was subcutaneously injected to the right flank of each NSG mice (male, 6-8 weeks). […] The control group received no treatment. Treatment started when the average tumor size reached 70-100 mm^3. […] Tumor volume and body weight were measured twice per week. Tumor volume was calculated by the equation: volume (mm^3)=0.5×(length×width^2). All animals were euthanized at the end of the study. Tumors were excised, recorded for ex-vivo weight and size, and imaged.

A549 = experiment: cells; settings: Homo sapiens, A549, read-out: IC50 ± SEM (nM) A549
22RV1 xenografts = experiment: 22RV1 prostate cancer xenograft model; assay type: in vivo, NSG mice; settings: 1 mg/kg IV, 2 times/week
Description: FIG. 19D: Similarly, for 22RV1 prostate cancer xenograft model, we inoculated 2.5×10^6 22RV1 cells subcutaneously into the right flank of each mouse. The cells were prepared in the mixture of FBS and phenol red-free DMEM medium and Matrigel (1:1 ratio). […] We measured tumor volume 2 times a week until reaching the study endpoint.

[4] = system: PANC-1 and Mia PaCa-2 cell lines; experiment: Cell cycle analysis (PDAC); assay type: cell-based, human
Description: The cells were plated in 100-mm dishes at a concentration of 1-2×10^6 cells/dish in DMEM without serum. After serum starvation for 24 h, medium was replaced with complete culture medium containing tested compounds. For cell cycle analysis, the cells were trypsinized and fixed with 70% ethanol in −20° C. overnight. The fixed cells were incubated with 100 μg/mL of RNase A and 50 μg/mL propidium iodide for 30 min at room temperature. Stained cells were analyzed using Bio-Rad ZE5 and ModFit LT 5.0.9 software at Flow cytometry and cell sorting core at the University of Tennessee Health Science Center (UTHSC) and the proportion of G1, S, G2/M phases were determined.

A549/TxR = experiment: cells; settings: Homo sapiens, read-out: IC50 ± SEM (nM) A549/TxR
[5] = Microsomal stability assay; settings: Table 3; liver microsomes; mean (% CV)
[6] = system: Mia PaCa-2-Luc xenografts; assay type: in vivo, NSG mice; settings: 2 mg/kg i.v., 1 dose/week, 42 days
Description: as §1

Mia PaCa-2 [7] = experiment: Colony formation assay (PDAC); assay type: cell-based, human; settings: tested 1, 2.5, 5 nM
Description: Cells were seeded at 1000 cells per well in 6-well plates in triplicates and treated with vehicle control or 1-5 nmol/L test compounds for 11 to 14 days. The colonies were fixed with 100% methanol and stained with 0.5% crystal violet. Colony area was quantified with Image J software.

[8] = target: T2, tubulin protein from bovine brain (Bos taurus, UniProt P81947+Q6B856); experiment: Tubulin polymerization assay (FIG. 5A); assay type: biochemical; settings: 10 μM, cell-free
T2 construct: tubulin protein from bovine brain origin; purchased Cytoskeleton, Denver, Colo; host or cells: bovine brain
Description: Tubulin polymerization reaction was initiated by adding 100 μL of tubulin protein from bovine brain origin (3 mg/ml, Cytoskeleton, Denver, Colo.) into 10 μM of test compounds in general tubulin buffer (80 mM PIPES, 2.0 mM MgCl2, 0.5 mM EGTA, and 1 mM GTP) according to the manufacturer protocol. The reaction kinetics were recorded in every thirty seconds for 1 h at 37° C. and a microplate reader equipped with absorbance settings at 340 nm wavelength was used for this purpose. The experiment was performed in duplicates.

T2 sequence (P81947 whole entry): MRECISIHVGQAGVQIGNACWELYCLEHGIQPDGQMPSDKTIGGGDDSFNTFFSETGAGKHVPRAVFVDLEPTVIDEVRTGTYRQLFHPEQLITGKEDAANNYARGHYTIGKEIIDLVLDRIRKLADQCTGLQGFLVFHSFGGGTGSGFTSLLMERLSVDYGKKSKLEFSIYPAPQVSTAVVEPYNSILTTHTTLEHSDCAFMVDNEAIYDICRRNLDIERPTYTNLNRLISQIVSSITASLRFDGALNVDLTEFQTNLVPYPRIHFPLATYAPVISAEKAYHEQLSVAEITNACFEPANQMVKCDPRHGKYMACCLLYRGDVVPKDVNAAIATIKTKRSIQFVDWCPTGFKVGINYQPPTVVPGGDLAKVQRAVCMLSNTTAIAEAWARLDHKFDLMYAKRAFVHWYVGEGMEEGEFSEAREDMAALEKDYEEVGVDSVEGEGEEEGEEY
T2 sequence (Q6B856 whole entry): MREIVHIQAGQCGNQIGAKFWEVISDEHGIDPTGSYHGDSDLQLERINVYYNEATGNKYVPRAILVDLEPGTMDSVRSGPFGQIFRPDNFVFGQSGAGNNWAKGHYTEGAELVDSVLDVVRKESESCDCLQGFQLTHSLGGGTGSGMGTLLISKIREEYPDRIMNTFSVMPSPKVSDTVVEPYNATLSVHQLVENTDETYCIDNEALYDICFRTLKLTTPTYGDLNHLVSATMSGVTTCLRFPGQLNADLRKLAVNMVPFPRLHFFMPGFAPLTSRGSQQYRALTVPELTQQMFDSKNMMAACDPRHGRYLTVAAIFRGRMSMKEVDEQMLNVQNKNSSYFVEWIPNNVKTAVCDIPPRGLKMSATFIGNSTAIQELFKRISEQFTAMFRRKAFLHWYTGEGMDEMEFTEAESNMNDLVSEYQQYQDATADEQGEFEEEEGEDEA
T1 sequence (P02550 whole entry): as the sequence (P81947 whole entry) above, with L136S, S232G, I265A, S340T, Q358E counted along it
T1 sequence (P02554 whole entry): as the sequence (Q6B856 whole entry) above, with T55A, M170V, S296A, I316V, E440G, G441E counted along it

Compound | IC50 (PC3) [nM] | A340 at which tubulin assembly stabilized (porcine brain tubulin) | IC50 (Mia PaCa-2 [1]) [nM] | IC50 level in paclitaxel-resistant cancer cells [2] | G2/M phase arrest (A375/TxR cells) | tolerability ([3]; 5 mg/kg IP, five times a week) | tolerability ([3]; 5 mg/kg and 10 mg/kg IV, 2 times a week) | tolerability ([3]; 10 mg/kg IP, five times a week) | xenograft tumor growth (PANC-1-Luc xenografts; 1 mg/kg or 2 mg/kg i.v., 1 dose/week for 7 weeks) | body weight vs control (PANC-1-Luc xenografts; 49 days, two doses) | IC50 (A549) [nM] | growth of 22RV1 xenografts (22RV1 xenografts) | cell cycle arrest at G2/M phase [4] | IC50 (A549/TxR) [nM] | Metabolic stability in mouse t1/2 [5] [min] | reduction of tumor growth vs control [6] | dose at which colony formation was completely inhibited (Mia PaCa-2 [7]) [nM] | effect on microtubule polymerization [8]
CCNc1nc2c(c(N3CC(=O)Nc4cc(OC)ccc43)n1)CCC2 [Compound 5v, 4-(2-(ethylamino)-6,7-dihydro-5H-cyclopenta[d]pyrimidin-4-yl)-7-methoxy-3,4-dihydroquinoxalin-2(1H)-one] | 1.7 ± 0.1 | approximately 0.05 | 3.4 ± 0.4 | sub-nanomolar level | arrested in the G2/M phase to increase dramatically | still healthy; also recorded: tolerated at 5 mg/kg IP | safe and no acute toxicity | toxic to mice; also recorded: not 10 mg/kg IP |  |  |  |  |  |  |  |  |  | 
COc1ccc2c(c1)NC(=O)CN2c1nc(C)nc2c1CCC2 [Compound 5m, 7-methoxy-4-(2-methyl-6,7-dihydro-5H-cyclopenta[d]pyrimidin-4-yl)-3,4-dihydroquinoxalin-2(1H)-one] |  |  |  |  |  |  |  |  | dose-dependent and significant inhibition of xenograft tumor growth; also recorded: dose-dependently inhibited xenograft tumor growth | no differences seen in body weight | 4.5 ± 0.8 | remarkable in inhibiting the growth of 22RV1 xenografts | dose dependently increase the proportion of cells in G2/M phase | 2.8 ± 1.1 | 14.4 | 70-80% | 1 | significantly inhibited microtubule polymerization
